Measured values reported in publication PMC10353390, “Biological and Structural Analyses of New Potent Allosteric Inhibitors of HIV-1 Integrase” (Antimicrobial Agents and Chemotherapy, 2023).

Experiments:
[1] = parameters: method as in ref 20 = [20]; 20 Single ascending dose trial investigating safety, tolerability and pharmacokinetics of BDM-2 in healthy male subjects . https://clinicaltrials.gov/ct2/show/NCT03634085 . Accessed 17 July 2020 .; details: single ascending dose, healthy male subjects; cited from earlier work
[2] = system: NL4-3 HIV-1 clone; experiment: Combination antiviral activity assay (MacSynergy II) in NL4-3-infected MT4 cells; assay type: cell-based
From the text: To this end, we evaluated the activity of BDM-2 in the presence of approved antiretroviral drugs against NL4-3 HIV-1 clone replicating on MT4 cells. Examples of MacSynergy plots obtained for the combinations of BDM-2 with the protease inhibitor lopinavir (LPV) or the INSTI EVG are shown in Fig. 3A and B, respectively. The results indicated no antagonism of ascending concentrations of BDM-2 with the antiviral activity of LPV or EVG and vice versa. Next, we extended these analyses to a panel of 16 FDA-approved antiretroviral drugs, including 3 protease inhibitors, 6 NRTIs, 4 NNRTIs, and 3 INSTIs.
BDM-2, as lead compound representative of the series, was used in these experiments. Combination studies were performed in MT4 cells infected with NL4-3, as previously described ([3]). Multiple concentrations of BDM-2 were tested in checkerboard pattern in the presence and absence of dilutions of 16 representative approved anti-HIV drugs of different classes. Compound combinations were analyzed by calculations to quantify deviation from additivity at the 50% level. Data were analyzed as described by Prichard and Shipman by using the MacSynergy II program ([54]). Synergy volumes in the range of −25 to +25 define additivity; −50 minor antagonism, +50 minor synergy, and up to 100 and >100 moderate and strong synergy, respectively. Combinations of RBV with AZT or ddI were used as controls for antagonism and synergy, respectively.

[3] = system: HIV-1 strains resistant to INSTIs, NRTIs, NNRTIs or PIs; assay type: cell-based
Summary of the method: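 NL4-3-based recombinant mutants and drug-resistant clinical isolates; exponentially growing MT4 cells (10^6/mL) infected at MOI 0.001 for 2 h with compound at varying concentrations. Protection quantified as cell viability by CellTiter-Glo luminescence.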

[4] = INSTI-resistant, NL4-3 background
[5] = INSTI-resistant, primary patient-derived strain

Which results are given for `Cc1ccc(C2CC2)c(-c2ccc3c(c2)CCCO3)c1[C@H](OC(C)(C)C)C(=O)O` [BDM-2]?
safety in phase I clinical trial [1]: without any serious adverse event and few mild adverse events; interaction with a panel of 16 FDA-approved antiretroviral drugs ([2]; 3 protease inhibitors, 6 NRTIs, 4 NNRTIs, 3 INSTIs, MacSynergy): no antagonism; interaction with lopinavir (LPV) ([2]; MacSynergy synergy volume): strong synergy (up to 100 and >100 moderate and strong synergy, respectively); interaction with some of the remaining drugs, including the INSTIs ([2]; MacSynergy synergy volume): moderate synergy (up to 100 and >100 moderate and strong synergy, respectively); Fold change in EC50 relative to NL4-3, E92Q [3, 4]: 1; Fold change in EC50 relative to NL4-3, G140S [3, 4]: 1; Fold change in EC50 relative to NL4-3, G140S/Q148H [3, 4]: 1; Fold change in EC50 relative to NL4-3, N155H [3, 4]: 1; Fold change in EC50 relative to NL4-3, Q148H [3, 4]: 1; Fold change in EC50 relative to NL4-3, Y143R [3, 4]: 1; Fold change in EC50 relative to NL4-3, E92Q/N155H (pat.) [3, 5]: 1; Fold change in EC50 relative to NL4-3, G140S/Q148H (pat.) [3, 5]: 1; Fold change in EC50 relative to NL4-3, T97A/N155H (pat.) [3, 5]: 1; Fold change in EC50 relative to NL4-3, NLAY351717 ([3]; NRTI-resistant clone): 2; Fold change in EC50 relative to NL4-3, NLAY351753 ([3]; NRTI/NNRTI-resistant clone): 1; Fold change in EC50 relative to NL4-3, K103N/Y181C ([3]; NRTI/NNRTIs group, NL4-3 background): 1; Fold change in EC50 relative to NL4-3, ARP-4595 ([3]; PI-resistant virus): 1; Fold change in EC50 relative to NL4-3, ARP-4596 ([3]; PI-resistant virus): 0.5; Fold change in EC50 relative to NL4-3, ARP-11801 ([3]; PI-resistant virus): 1; Fold change in EC50 relative to NL4-3, ARP-11803 ([3]; PI-resistant virus): 1; Fold change in EC50 relative to NL4-3, ARP-11807 ([3]; PI-resistant virus): 1; Fold change in EC50 relative to NL4-3, ARP-11808 ([3]; PI-resistant virus): 1
